Publication PMC5222590 (Structure(London, England:1993), 2017)

Target: T1, FusA (Streptococcus pneumoniae, UniProt A0A0H2URD6)
T1 sequence (A0A0H2URD6 47-538): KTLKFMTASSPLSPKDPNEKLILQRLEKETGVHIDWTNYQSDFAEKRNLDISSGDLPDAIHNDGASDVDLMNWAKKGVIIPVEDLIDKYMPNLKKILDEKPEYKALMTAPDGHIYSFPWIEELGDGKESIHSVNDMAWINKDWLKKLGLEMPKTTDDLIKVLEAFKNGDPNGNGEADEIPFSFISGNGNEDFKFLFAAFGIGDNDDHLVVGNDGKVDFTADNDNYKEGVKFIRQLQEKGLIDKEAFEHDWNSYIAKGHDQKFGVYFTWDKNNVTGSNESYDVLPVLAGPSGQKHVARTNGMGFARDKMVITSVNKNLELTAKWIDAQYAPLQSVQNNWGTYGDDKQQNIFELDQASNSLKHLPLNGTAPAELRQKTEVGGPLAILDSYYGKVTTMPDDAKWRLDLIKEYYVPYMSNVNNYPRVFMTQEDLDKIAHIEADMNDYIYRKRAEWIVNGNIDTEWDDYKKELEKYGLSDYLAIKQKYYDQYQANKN
Assay: ITC
Type: binding
Conditions: pH 7.4, 0.15 M NaCl, 25 °C; 1:1

In the case of `OC[C@H]1O[C@@](CO)(OC[C@@]2(OC[C@@]3(O[C@H]4O[C@H](CO)[C@@H](O)[C@H](O)[C@H]4O)O[C@H](CO)[C@@H](O)[C@@H]3O)O[C@H](CO)[C@@H](O)[C@@H]2O)[C@@H](O)[C@@H]1O` [GF3, nystose], the KD is reported as “FusA had submicromolar affinity for fructofuranosyl-nystose and nystose”.
